Assay results published in US8895585B2, “Nicotinamide derivative or salt thereof” (FUJIFILM Corporation, priority 2010, dated 2014).

Assays:
female Lewis rats = experiment: Rat type-II-collagen-induced arthritis; assay type: in vivo; settings: oral administration at 10 mg/kg/day, once daily Day 7 to Day 20, hindlimb volume by plethysmometer, read-out: inhibition of hindlimb swelling compared with the control group
Protocol: The compounds were tested to examine effects upon rat type II collagen arthritis. To 3 mg/mL bovine type II collagen solution (Collagen Gijutsu Kenshu-Kai) dissolved in 0.05 mol/L acetic acid, an equal amount of Freund's incomplete adjuvant (Wako Pure Chemical Industries, Ltd.) was added to prepare an emulsion. A portion of the emulsion (0.5 ml) was intradermally injected into the tail bases of 7- or 8-week-old female Lewis rats (Charles River Laboratories Japan, Inc.) (Day 0). Each rat was subjected to the same treatment on Day 7 after the initial inoculation so as to induce arthritis. Each test compound was orally administered from Day 7 to Day 20 once daily. At a given time during the period from Day 7 to Day 21, the rat hindlimb volume was determined using a plethysmometer (UGO BASILE), and the result was designated as an arthritis index. The following compound group inhibited hindlimb swelling by 85% or greater compared with the control group in the case of oral administration at 10 mg/kg/day: the compounds of Example 4-17, Example 6-49, Example 6-117, Example 6-157, Example 6-249, Example 6-322, Example 6-375, and Example 6-395.

[1] = molecular target: T1, glutathione S-transferase (GST)-fused full-length human Syk protein (Homo sapiens, UniProt P43405); experiment: Syk enzyme assay; assay type: biochemical; settings: Syk enzyme assay, Test Example 1; read-out: IC50 of Syk-inhibitory activity
T1 construct: (GST)-fused full-length human Syk protein; GST (glutathione S-transferase); purchased Carna Biosciences
Method in brief: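 Baculovirus-expressed enzyme (1.2 ng) was preincubated with compound in HEPES pH 7.0/MgCl2/DTT buffer, 2 min shaking then 13 min at room temperature. Biotin-EDPDYEWPSA-NH2 (0.4 μM final) and ATP (27 μM final) were added for 40 min at room temperature. EDTA stop, streptavidin-XL/PT66-K TR-FRET at 615/665 nm gave IC50.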

THP-1 cells [2] = experiment: TNFα generation assay; assay type: cell-based, human; settings: Homo sapiens, THP-1, THP-1 cells; Table 22; read-out: IC50 in TNFα generation assay
Method in brief: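 Secreted TNFα in supernatant quantified by ELISA or AlphaLISA after 7 h culture on human IgG-coated wells (10 μg/ml coating). Cells were IFN-γ-differentiated THP-1 (10 ng/ml, 2 days), exposed to compound for 30 min at room temperature before plating.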

THP-1 cells [3] = experiment: Antibody-dependent phagocytosis assay; assay type: cell-based; settings: Homo sapiens; THP-1 cells induced to differentiate with IFNγ; opsonized Escherichia coli; Table 23; read-out: IC50 upon phagocytosis inhibition
Protocol: THP-1 cells (2×10^5 cells/ml) which are human monocyte-like cell line were cultured in the presence of 10 ng/ml IFNγ for 2 days, so that the cells were induced to differentiate into macrophage-like cells. THP-1 cells that had been induced to differentiate were collected. The cells (5×10^4 cells/well) were reacted with test compounds having given concentrations at room temperature for 30 minutes. Thereafter, Escherichia coli (Life Technologies) labeled with a pH-sensitive dye (pHrodo) was subjected to opsonization using an anti-Escherichia coli antibody (Molecular Probes). Then, the resultant was added to THP-1 cells mixed with test compounds that had been induced to differentiate, followed by incubation at 37° C. for 3 hours. At the time of addition of opsonized Escherichia coli, cell-permeable fluorescent dye (Calcein AM) were simultaneously added thereto, and phagocytosis of opsonized Escherichia coli in viable cells was quantitatively determined using an IN Cell Analyzer.
In addition, the following are used in Table 23 to denote standards for evaluating IC50 upon phagocytosis inhibition. • A: Up to 1 μM • B: 1 to 3 μM • C: 3 to 6 μM

Structure (SMILES) | inhibition in vivo at 10 mg/kg/day (female Lewis rats) [%] | IC50 [1] [nM] | IC50 (THP-1 cells [2]) [nM] | IC50 (THP-1 cells [3]) [nM]
CC(C)C[C@H](CN)Nc1nc(Nc2ccc3ncccc3c2)c(C(N)=O)cc1F [Example 6-117, (R)-6-((1-amino-4-methylpentan-2-yl)amino)-5-fluoro-2-((quinolin-6-yl)amino)nicotinamide] | ≥ 85 | – | – | –
CCC[C@@H](Nc1nc(Nc2ccnc(OC)c2)c(C(N)=O)cc1F)[C@H](C)N [Example 6-249, 6-(((2S,3R)-2-aminohexane-3-yl)amino)-5-fluoro-2-((2-methoxypyridin-4-yl)amino)nicotinamide] | ≥ 85 | – | – | –
CC[C@@H](Nc1nc(Nc2cncc(-c3cccc(OC)c3F)c2)c(C(N)=O)cc1F)[C@H](C)N [Example 006-278, 6-(((2S,3R)-2-aminopentan-3-yl)amino)-5-fluoro-2-((5-(2-fluoro-3-methoxyphenyl)pyridin-3-yl)amino)nicotinamide] | – | < 10 | < 65 | 1000 to 3000
CCC[C@@H](Nc1nc(Nc2cncc(F)c2)c(C(N)=O)cc1F)[C@H](C)N [Example 006-301, 6-(((2S,3R)-2-aminohexan-3-yl)amino)-5-fluoro-2-((5-fluoropyridin-3-yl)amino)nicotinamide] | – | 10 to 50 | 65 to 130 | 1000 to 3000
CCCOc1cc(Nc2nc(N[C@H](CCC)[C@H](C)N)c(F)cc2C(N)=O)ccn1 [Example 006-311, 6-(((2S,3R)-2-aminohexan-3-yl)amino)-5-fluoro-2-((2-propoxypyridin-4-yl)amino)nicotinamide] | – | < 10 | 65 to 130 | 1000 to 3000
CCn1ncc2cc(Nc3nc(N[C@@H](CN)CC(C)C)c(F)cc3C(N)=O)ccc21 [Example 006-322, (R)-6-((1-amino-4-methylpentan-2-yl)amino)-2-((1-ethyl-1H-indazol-5-yl)amino)-5-fluoronicotinamide] | – | < 10 | < 65 | < 1000
CCn1ncc2cc(Nc3nc(N[C@@H](CN)CC(C)C)c(F)cc3C(N)=O)ccc21 [Example 6-322, (R)-6-((1-amino-4-methylpentan-2-yl)amino)-2-((1-ethyl-1H-indazol-5-yl)amino)-5-fluoronicotinamide] | ≥ 85 | – | – | –
CCn1ncc2cc(Nc3nc(N[C@H](CC4CC4)[C@H](C)N)c(F)cc3C(N)=O)ccc21 [Example 006-342, 6-(((2R,3S)-3-amino-1-cyclopropylbutan-2-yl)amino)-2-((1-ethyl-1H-indazol-5-yl)amino)-5-fluoronicotinamide] | – | < 10 | < 65 | 1000 to 3000
C[C@H](N)[C@H](Nc1nc(Nc2ccc3ncccc3c2)c(C(N)=O)cc1F)C1CC1 [Example 006-368, 6-(((1R,2S)-2-amino-1-cyclopropylpropyl)amino)-5-fluoro-2-((quinolin-6-yl)amino)nicotinamide] | – | < 10 | < 65 | < 1000
Cc1ncc(Nc2nc(N[C@@H]3CCCC[C@@H]3N)c(F)cc2C(N)=O)cc1-n1nccn1 [Example 006-375, 6-(((1R,2S)-2-aminocyclohexyl)amino)-5-fluoro-2-((6-methyl-5-(2H-1,2,3-triazol-2-yl)pyridin-3-yl)amino)nicotinamide] | – | < 10 | 65 to 130 | 1000 to 3000
Cc1ncc(Nc2nc(N[C@@H]3CCCC[C@@H]3N)c(F)cc2C(N)=O)cc1-n1nccn1 [Example 6-375, 6-(((1R,2S)-2-aminocyclohexyl)amino)-5-fluoro-2-((6-methyl-5-(2H-1,2,3-triazol-2-yl)pyridin-3-yl)amino)nicotinamide] | ≥ 85 | – | – | –
Cc1ncc(Nc2nc(N[C@@H]3CCCC[C@@H]3N)c(F)cc2C(N)=O)cc1-c1ccco1 [Example 006-376, 6-(((1R,2S)-2-aminocyclohexyl)amino)-5-fluoro-2-((5-(furan-2-yl)-6-methylpyridin-3-yl)amino)nicotinamide] | – | < 10 | < 65 | 1000 to 3000
COc1ncc(Nc2nc(N[C@@H]3CCCC[C@@H]3N)c(F)cc2C(N)=O)cc1-n1nccn1 [Example 006-377, 6-(((1R,2S)-2-aminocyclohexyl)amino)-5-fluoro-2-((6-methoxy-5-(2H-1,2,3-triazol-2-yl)pyridin-3-yl)amino)nicotinamide] | – | < 10 | < 65 | 1000 to 3000
CC(C)C[C@@H](Nc1nc(Nc2ccc3c(cnn3C)c2)c(C(N)=O)cc1F)[C@H](C)N [Example 006-383, 6-(((2S,3R)-2-amino-5-methylhexan-3-yl)amino)-5-fluoro-2-((1-methyl-1H-indazol-5-yl)amino)nicotinamide] | – | < 10 | < 65 | 1000 to 3000
CCn1ncc2cc(Nc3nc(N[C@H](CC(C)C)[C@H](C)N)c(F)cc3C(N)=O)ccc21 [Example 006-384, 6-(((2S,3R)-2-amino-5-methylhexan-3-yl)amino)-2-((1-ethyl-1H-indazol-5-yl)amino)-5-fluoronicotinamide] | – | < 10 | < 65 | < 1000
NC(=O)c1cc(F)c(N[C@@H]2CCCC[C@@H]2N)nc1Nc1cnc(N2CCOCC2)c(F)c1 [Example 006-395, 6-(((1R,2S)-2-aminocyclohexyl)amino)-5-fluoro-2-((5-fluoro-6-morpholinopyridin-3-yl)amino)nicotinamide] | – | 10 to 50 | 65 to 130 | 1000 to 3000
NC(=O)c1cc(F)c(N[C@@H]2CCCC[C@@H]2N)nc1Nc1cnc(N2CCOCC2)c(F)c1 [Example 6-395, 6-(((1R,2S)-2-aminocyclohexyl)amino)-5-fluoro-2-((5-fluoro-6-morpholinopyridin-3-yl)amino)nicotinamide] | ≥ 85 | – | – | –
CCOc1nccc(Nc2nc(N[C@@H]3CCCC[C@@H]3N)c(F)cc2C(N)=O)c1F [Example 006-433, 6-(((1R,2S)-2-aminocyclohexyl)amino)-2-((2-ethoxy-3-fluoropyridin-4-yl)amino)-5-fluoronicotinamide] | – | < 10 | 65 to 130 | 1000 to 3000
COC[C@@H](Nc1nc(Nc2ccc3ncccc3c2)c(C(N)=O)cc1F)[C@H](C)N [Example 006-468, 6-(((2S,3S)-3-amino-1-methoxybutan-2-yl)amino)-5-fluoro-2-((quinolin-6-yl)amino)nicotinamide] | – | < 10 | < 65 | < 1000
NC(=O)c1cc(F)c(NC2CCCCC2N)nc1Nc1ccc2ncccc2c1 (centres unmarked) [Example 008-006] | – | < 10 | < 65 | < 1000
NC(=O)c1cc(F)c(N[C@@H](C(N)=O)c2ccccc2)nc1Nc1ccc2ncccc2c1 [Example 012-008] | – | 10 to 50 | 65 to 130 | 1000 to 3000
CCC(N)CNc1nc(Nc2ccc3ncccc3c2)c(C(N)=O)cc1F (centres unmarked) [Example 014-001] | – | < 10 | < 65 | 1000 to 3000
